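These data come from cells grown in 96-well plates and exposed to compound for 48 hours at five concentrations. At the GI50, growth is halved. The concentration for full growth arrest is given as TGI.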
What was measured:
Test in all cases: DTP human tumour cell line panel, 48 h
[1] = system: K-562 leukemia
[2] = system: SK-OV-3 ovarian
[3] = system: EKVX NSCLC
[4] = system: HT29 colon
[5] = system: OVCAR-3 ovarian
[6] = system: HOP-92 NSCLC
[7] = system: SW-620 colon
[8] = system: NCI-H23 lung
[9] = system: HOP-62 NSCLC
[10] = system: MDA-MB-435

For O=C(N/N=C\c1cc(Cl)ccc1O)N/N=C/c1cc(Cl)ccc1O, the GI50 [1] was 0.572 µM, the TGI [1] was > 100 µM and the GI50 [2] was > 100 µM. For the same compound, the TGI [2] was > 100 µM, the GI50 [3] was 7.83 µM and the TGI [3] was > 100 µM. For the same compound, the GI50 [4] was 9.57 µM, the TGI [4] was > 100 µM and the GI50 [5] was 2.12 µM. The TGI [5] was > 100 µM, the GI50 [6] was 0.99 µM and the TGI [6] was 9.48 µM. For the same compound, the GI50 [7] was 0.807 µM, the TGI [7] was > 100 µM and the GI50 [8] was 2.34 µM. For the same compound, the TGI [8] was > 100 µM, the GI50 [9] was 2.49 µM and the TGI [9] was > 100 µM. For the same compound, the GI50 [10] was 1.36 µM and the TGI [10] was > 100 µM.
In the case of CC(=O)OCC1OC(O[C@@H]2C[C@H]3C(C)(C)[C@H](OC(C)=O)CC[C@]3(C)[C@H]3CC[C@@H]4[C@]5(CC[C@@]4(C)[C@@]32C)O[C@@H]([C@H](O)C(C)(C)O)C[C@@H]5C)C(O)C(O)C1O (stereo partly specified), the GI50 [1] was 4.51 µM, the TGI [1] was 25.1 µM and the GI50 [2] was 7.95 µM. It also gave a TGI [2] of 20.7 µM, a GI50 [3] of 9.52 µM and a TGI [3] of 28.5 µM. It also gave a GI50 [4] of 1.83 µM, a TGI [4] of 4.28 µM and a GI50 [5] of 7.05 µM. For the same compound, the TGI [5] was 20.5 µM, the GI50 [6] was 10 µM and the TGI [6] was 21.6 µM. The GI50 [7] was 10.4 µM, the TGI [7] was 22.9 µM and the GI50 [8] was 12.9 µM. The TGI [8] was 26.9 µM, the GI50 [9] was 14.2 µM and the TGI [9] was 27.3 µM. For the same compound, the GI50 [10] was 8.36 µM and the TGI [10] was 22.4 µM.
ClCc1ccc(Cn2cnc3ncnc(Cl)c32)cc1 was tested, and the GI50 [1] was 3.03 µM, the TGI [1] was > 100 µM and the GI50 [2] was 11.3 µM. It also gave a TGI [2] of 23.3 µM, a GI50 [3] of 2.25 µM and a TGI [3] of 4.45 µM. For the same compound, the GI50 [4] was 1.22 µM, the TGI [4] was 3.59 µM and the GI50 [5] was 1.8 µM. For the same compound, the TGI [5] was 3.39 µM, the GI50 [6] was 1.17 µM and the TGI [6] was 2.52 µM. For the same compound, the GI50 [7] was 2.58 µM, the TGI [7] was 7.18 µM and the GI50 [8] was 16 µM. For the same compound, the TGI [8] was 30.6 µM, the GI50 [9] was 1.78 µM and the TGI [9] was 3.16 µM. It also gave a GI50 [10] of 5.82 µM and a TGI [10] of 19.2 µM.
In the case of COc1cc(C(=O)c2c(-c3ccccc3)oc3ccccc23)cc(OC)c1O, the GI50 [1] was 0.4 µM, the TGI [1] was 44.5 µM and the GI50 [2] was 6.24 µM. For the same compound, the TGI [2] was 52.1 µM, the GI50 [3] was 3.85 µM and the TGI [3] was 58.2 µM. The GI50 [4] was 9.78 µM, the TGI [4] was > 100 µM and the GI50 [5] was 1.11 µM. It also gave a TGI [5] of 5.21 µM, a GI50 [6] of 0.595 µM and a TGI [6] of 12.7 µM. For the same compound, the GI50 [7] was 0.96 µM, the TGI [7] was 26.9 µM and the GI50 [8] was 3.96 µM. It also gave a TGI [8] of 22.6 µM, a GI50 [9] of 7.3 µM and a TGI [9] of 23.4 µM. For the same compound, the GI50 [10] was 0.285 µM and the TGI [10] was 0.777 µM.
In the case of COc1ccc2c3c([nH]c2c1)[C@H]1C[C@H]2[C@H](C[C@@H](O)[C@H](OC)[C@H]2C(=O)O)CN1CC3, the TGI [1] was > 100 µM, the TGI [2] was > 100 µM and the TGI [3] was > 100 µM. The TGI [4] was > 100 µM, the TGI [5] was > 100 µM and the TGI [6] was > 100 µM. For the same compound, the TGI [7] was > 100 µM, the TGI [8] was > 100 µM and the TGI [9] was > 100 µM. The TGI [10] was > 100 µM.
CCNC1=CC(=O)c2ncccc2C1=O was tested, and the GI50 [1] was 2.84 µM, the TGI [1] was 12.5 µM and the GI50 [2] was 6.92 µM. It also gave a TGI [2] of 19.8 µM, a GI50 [3] of 4.68 µM and a TGI [3] of 18.5 µM. It also gave a GI50 [4] of 2.82 µM, a TGI [4] of 6.59 µM and a GI50 [5] of 0.807 µM. For the same compound, the TGI [5] was 5.41 µM, the GI50 [6] was 10.3 µM and the TGI [6] was 25.3 µM. For the same compound, the GI50 [7] was 1.75 µM, the TGI [7] was 4.3 µM and the GI50 [8] was 0.504 µM. For the same compound, the TGI [8] was 2.53 µM, the GI50 [9] was 0.583 µM and the TGI [9] was 2.04 µM. It also gave a GI50 [10] of 0.4 µM and a TGI [10] of 1.5 µM.
With C[C@@H]1CC[C@H]2C(CN3CCN(CC4=C(C(F)(F)F)O[C@@H]5O[C@@]6(C)CC[C@H]7[C@H](C)CC[C@@H]4[C@@]57OO6)CC3)=C(C(F)(F)F)O[C@@H]3O[C@@]4(C)CC[C@@H]1[C@]32OO4 the GI50 [1] was 1.09 µM, the TGI [1] was > 100 µM and the GI50 [2] was > 100 µM. The TGI [2] was > 100 µM, the GI50 [3] was 3.14 µM and the TGI [3] was > 100 µM. For the same compound, the GI50 [4] was 1.42 µM, the TGI [4] was > 100 µM and the GI50 [5] was 1.84 µM. The TGI [5] was > 24.9 µM, the GI50 [6] was 5.15 µM and the TGI [6] was > 100 µM. For the same compound, the GI50 [7] was 1.12 µM, the TGI [7] was > 100 µM and the GI50 [8] was 2.07 µM. The TGI [8] was > 100 µM, the TGI [9] was > 46.9 µM and the GI50 [10] was 1.09 µM. The TGI [10] was > 100 µM.
For C/C(=N\n1c(N)c(C#N)c(-c2ccc(Cl)cc2)c(C#N)c1=O)c1cccnc1, the GI50 [1] was > 100 µM, the TGI [1] was > 100 µM and the GI50 [2] was > 100 µM. The TGI [2] was > 100 µM, the GI50 [3] was > 100 µM and the TGI [3] was > 100 µM. The GI50 [4] was > 100 µM, the TGI [4] was > 100 µM and the GI50 [5] was > 100 µM. The TGI [5] was > 100 µM, the TGI [6] was 34.8 µM and the GI50 [7] was > 100 µM. The TGI [7] was > 100 µM, the GI50 [8] was > 100 µM and the TGI [8] was > 100 µM. For the same compound, the GI50 [9] was > 100 µM, the TGI [9] was > 100 µM and the GI50 [10] was > 100 µM. The TGI [10] was > 100 µM.
In the case of COCCOCCOCCOCCOc1ccc2c(c1)C(=O)c1nc3ncccc3c(=O)n1-2, the GI50 [2] was 2.81 µM, the TGI [2] was 6.99 µM and the GI50 [3] was 1.87 µM. For the same compound, the TGI [3] was 5.28 µM, the GI50 [4] was 1.47 µM and the TGI [4] was 3.7 µM. It also gave a GI50 [5] of 0.969 µM, a TGI [5] of 3.39 µM and a GI50 [6] of 8.23 µM. It also gave a TGI [6] of 29.5 µM, a GI50 [7] of 1.15 µM and a TGI [7] of 2.36 µM. The GI50 [8] was 0.279 µM, the TGI [8] was 1.18 µM and the GI50 [9] was 0.744 µM. For the same compound, the TGI [9] was 2.18 µM, the GI50 [10] was 0.188 µM and the TGI [10] was 0.364 µM.
In the case of CCn1cc(C2NC(=O)c3cc(F)ccc3N2)c2cccc(Cl)c21 (stereo unspecified), the GI50 [1] was 0.0414 µM, the TGI [1] was > 100 µM and the GI50 [2] was 0.706 µM. For the same compound, the TGI [2] was > 100 µM, the GI50 [3] was 0.461 µM and the TGI [3] was > 100 µM. For the same compound, the GI50 [4] was 0.276 µM, the TGI [4] was > 100 µM and the GI50 [5] was 0.1 µM. The TGI [5] was 0.596 µM, the GI50 [6] was > 24.4 µM and the TGI [6] was > 100 µM. For the same compound, the GI50 [7] was 0.193 µM, the TGI [7] was > 100 µM and the GI50 [8] was 0.508 µM. The TGI [8] was > 100 µM, the GI50 [9] was 0.485 µM and the TGI [9] was > 100 µM. It also gave a GI50 [10] of 0.0367 µM and a TGI [10] of 0.142 µM.
In the case of COc1ccccc1OCC(O)CO (stereo unspecified), the GI50 [1] was > 100 µM, the TGI [1] was > 100 µM and the GI50 [2] was > 100 µM. The TGI [2] was > 100 µM, the GI50 [3] was > 100 µM and the TGI [3] was > 100 µM. For the same compound, the GI50 [4] was > 100 µM, the TGI [4] was > 100 µM and the GI50 [5] was > 100 µM. For the same compound, the TGI [5] was > 100 µM, the GI50 [6] was > 100 µM and the TGI [6] was > 100 µM. The GI50 [7] was > 100 µM, the TGI [7] was > 100 µM and the GI50 [8] was > 100 µM. The TGI [8] was > 100 µM, the GI50 [9] was > 100 µM and the TGI [9] was > 100 µM. For the same compound, the GI50 [10] was > 100 µM and the TGI [10] was > 100 µM.
With Cn1cc(/C=C2\C(=O)Nc3cccnc32)c2ccccc21 the GI50 [1] was > 18.4 µM, the TGI [1] was > 25 µM and the GI50 [2] was 17 µM. The TGI [2] was > 25 µM, the GI50 [3] was 11.1 µM and the TGI [3] was > 25 µM. The GI50 [4] was 13.1 µM, the TGI [4] was > 25 µM and the GI50 [5] was > 22.5 µM. The TGI [5] was > 25 µM, the GI50 [6] was 2.51 µM and the TGI [6] was 24.8 µM. For the same compound, the GI50 [7] was 12.6 µM, the TGI [7] was > 25 µM and the GI50 [8] was 10.9 µM. For the same compound, the TGI [8] was > 25 µM, the GI50 [9] was > 25 µM and the TGI [9] was > 25 µM. For the same compound, the GI50 [10] was 18 µM and the TGI [10] was > 25 µM.

From PubChem BioAssay (NCI)
